The text below walks through data of article PMC12865133, “Macrocyclic Molecular Glues for the 14‐3‐3/ChREBP Interaction: Affinity and Cooperativity in an Inverse Relationship” (Angewandte Chemie (International Ed. in English), 2025).

One test addresses T1, 14-3-3/ChREBP complex (Homo sapiens, UniProt P31946+Q9NP71).
T1 sequence (P31946 1-246): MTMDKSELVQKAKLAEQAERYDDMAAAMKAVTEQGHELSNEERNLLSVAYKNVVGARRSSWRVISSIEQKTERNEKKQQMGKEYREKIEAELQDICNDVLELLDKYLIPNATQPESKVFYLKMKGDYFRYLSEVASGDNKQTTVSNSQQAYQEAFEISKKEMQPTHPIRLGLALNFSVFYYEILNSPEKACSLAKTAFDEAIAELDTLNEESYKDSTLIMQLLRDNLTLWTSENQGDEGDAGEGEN
T1 sequence (Q9NP71 117-142 partner limits assumed): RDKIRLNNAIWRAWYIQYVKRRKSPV
Description: 2D FA titrations fitted to thermodynamic cooperativity model. Conditions: for α1 / α / Kd: 2D FA model fit; for α1: dimeric 14-3-3 model; for cooperativity (α) factor: 2D FA, 14-3-3β titrated to FITC-labeled MG with varying ChREBP peptide, KD^II fixed 1.5 µM, mean of n = 2; for Kd: KDI.

The next test deals with T2, 14-3-3β (Homo sapiens, UniProt P31946).
T2 construct: The full-length human 14-3-3β and γ proteins; made in house; host or cells: Escherichia coli BL21(DE3)
T2 sequence (P31946 1-246): T1 sequence (P31946 1-246)
Description: FA titration of 14-3-3β to FITC-labeled macrocycle (EC50 used for selectivity assay). Type of test: binding. The following applies: 14-3-3β concentration equal to/around EC50 for FITC-labeled macrocycle (10 nM). How it is done:
For the 2D titrations, 14-3-3β was titrated in a 2-fold dilution series (starting at 250 µM) to a mix of fluorescein-labeled macrocycle (5 nM) against varying fixed concentrations of ChREBP (2-fold dilution starting from 20 µM (replicate 1) or 10 µM (replicate 2)).
Dilution series were made in a polystyrene (non-binding) low-volume Corning Black Round Bottom 384-well plates (Corning 4514 or 4511). […] Wells containing 5 nm FITC-macrocycle were used to set as G-factor. All data were analyzed using Origin2023b and fitted using a four-parameter logistic model. Each measurement was performed in three independent experiments.

Test [1] relates to 14-3-3β/macrocycle complex. Description: FA selectivity assay, acetylated 14-3-3 client peptides titrated to 14-3-3β/macrocycle complex. The class given is binding, human. The following applies: acetylated client peptide titrated from 100 μM to 14-3-3β (at EC50) and FITC-labeled macrocycle (10 nM), n = 3.
Test [2] addresses T3, 14-3-3γ (Homo sapiens, UniProt P61981).
T3 sequence (P61981 1-247): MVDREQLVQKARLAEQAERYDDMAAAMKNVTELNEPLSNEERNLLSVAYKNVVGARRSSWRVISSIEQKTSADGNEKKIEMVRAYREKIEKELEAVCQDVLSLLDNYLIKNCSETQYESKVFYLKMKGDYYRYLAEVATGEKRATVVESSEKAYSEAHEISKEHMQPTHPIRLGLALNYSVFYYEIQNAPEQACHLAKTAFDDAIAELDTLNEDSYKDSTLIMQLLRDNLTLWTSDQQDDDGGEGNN
As to the kind of experiment: Isothermal titration calorimetry, peptide titrated to 14-3-3γ. The class given is binding. Conditions: ITC, 200 μM peptide titrated to 20 μM 14-3-3γ, mean ± SD, n=3; for ΔS: 25 mM HEPES pH 8.0, 100 mM NaCl, 10 mM MgCl2, 500 µM TCEP, 25 °C; for ΔG / ΔH: pH 8.0, 25 °C. As for the experimental part:
Final dialysis fluid from protein expression was frozen as 2 mL aliquots to serve as ITC buffer (25 mM HEPES pH 8.0, 100 mM NaCl, 10 mM MgCl2, 500 µM TCEP). 14-3-3γ and peptide were dissolved and diluted in this buffer to 20 μM and 200 μM, respectively. Samples were degassed for 10 min prior to measurement at 450 mmHg. The reference cell was filled with 300 µL degassed MilliQ and the sample cell was filled with 300 µL of peptide or protein mixture. Syringe was loaded with at least 200 µL protein or peptide sample. Measurements were performed on an Affinity ITC LV (TA instruments), with injection size set to 2 µL, stirring speed of 125 rpm and temperature at 25 ̊C. The baseline was automatically adjusted with NITPIC, analysis of data was done in SEDPHAT, and images were produced with GUSSI software. Data and errors represent mean ± SD, n=3 replicates.

Test [3] has as its target T3, 14-3-3γ. Description: Surface plasmon resonance, Twinstrep-tagged 14-3-3γ captured on StrepTactinXT chip. The following applies: for KD, affinity fit: SPR steady-state 1:1 fit; for kon: pH 7.4, read-out: ka, kinetic fit. A general note: SPR reads the build-up and loss of mass on a sensor chip optically.
Description: The SPR experiments were performed at 25 °C using a Biacore X100 (Cytiva) and a 200 nm Strep-Tactin XT derivatized linear polycarboxylate hydrogel chip, medium charge density (XanTec Bioanalytics). All proteins and peptides were dissolved in fresh running buffer prepared with ultrapure water and filtered through a 0.2 μm filter (10 mM HEPES pH 7.4, 200 mM NaCl, 50 μM EDTA, 0.005% P20). First the surface was conditioned with a 1 min injection of 3 M Guanidine HCl. The Biacore X100 was primed with running buffer. […] Flow cell 1 was left blank as a reference surface. […] Between cycles of one multi-cycle measurement, no regeneration step was performed due to the complete dissociation of the analyte. […] The data collection rate of the instrument is 1 datapoint/sec. […] All parameters were fitted using global fitting, including the Rmax, because a single immobilization was used for all analyte concentrations. The RI was set constant at 0 RU. Next to kinetic fitting, the affinity fit was made using a 1:1 binding model by plotting the response (RU) at steady state over the analyte concentration (Fig. S2).
The target in test [4] is T3, 14-3-3γ. As to the kind of experiment: Fluorescence Anisotropy protein titration of 14-3-3γ to FITC-labeled macrocycles. Type of test: binding. The following applies: FA, 14-3-3γ titrated (2-fold from 250 µM) to FITC-labeled peptide (10 nM in Fig. 2a, 5 nM in method), 10 mM HEPES pH 7.4, 150 mM NaCl, 0.1% Tween20, 0.1% BSA, rt, mean ± SD, n = 3. As for the experimental part: Wells containing 5 nm FITC-macrocycle were used to set as G-factor. All data were analyzed using Origin2023b and fitted using a four-parameter logistic model. Each measurement was performed in three independent experiments.
A general note: Fluorescence polarisation rises when a labelled molecule tumbles more slowly, as on binding a larger partner.

Setting [5] is: replicate 1 (ChREBP from 20 μM).
[6] abbreviates: replicate 2 (ChREBP from 10 μM).
[7] abbreviates: SPR, 1:1 model, 25 °C, 10 mM HEPES pH 7.4, 200 mM NaCl, replicate 1.
Setting [8] is: SPR, 1:1 model, 25 °C, pH 7.4, average ± SD, n=2, SD.
Where [9] appears, read: SPR, 1:1 model, 25 °C, pH 7.4, replicate 1.
The mark [10] stands for this setting: SPR, 1:1 model, 25 °C, pH 7.4, replicate 2.

Regarding `NCCCC[C@@H](C(=O)NCCC(=O)N[C@@H](CCCCNC(=S)Nc1ccc2c(c1)C(=O)OC21c2ccc(O)cc2Oc2cc(O)ccc21)C(N)=O)N1CCc2cn(nn2)-c2ccc(cc2)C[C@H](NC(=O)[C@@H](N)COP(=O)(O)O)C(=O)N[C@@H](CO)CC(=O)NCCC(=O)N[C@@H](Cc2ccc([N+](=O)[O-])cc2)C1=O` [Macrocycle 2], the α1 came out at 18.8 on 14-3-3/ChREBP complex (replicate 1) and 8.3 at 14-3-3/ChREBP complex (replicate 2). Moreover, the figures for the α on 14-3-3/ChREBP complex (setting [5]) and on 14-3-3/ChREBP complex (setting [6]) were 46 and 61, respectively.

One may read the EC50 as the concentration needed to bring the measured effect to its halfway point. Regarding `NCCCC[C@@H](C(=O)NCCC(=O)N[C@@H](CCCCNC(=S)Nc1ccc2c(c1)C(=O)OC21c2ccc(O)cc2Oc2cc(O)ccc21)C(N)=O)N1CCc2cn(nn2)-c2ccc(cc2)C[C@H](NC(=O)[C@@H](N)COP(=O)(O)O)C(=O)N[C@@H](CO)CC(=O)NCCC(=O)N[C@@H](Cc2ccc([N+](=O)[O-])cc2)C1=O` [Macrocycle F2], the EC50 at 14-3-3β is 7000 nM.

As for `NCCCC[C@@H](C(=O)NCCC(=O)N[C@@H](CCCCNC(=S)Nc1ccc2c(c1)C(=O)OC21c2ccc(O)cc2Oc2cc(O)ccc21)C(N)=O)N1Cc2cn(nn2)-c2ccc(cc2)C[C@H](NC(=O)[C@@H](N)COP(=O)(O)O)C(=O)N[C@@H](CO)CC(=O)NCCC(=O)N[C@@H](Cc2ccc([N+](=O)[O-])cc2)C1=O` [Macrocycle F1], the α1 stood at 82.8 on 14-3-3/ChREBP complex (replicate 1) and 85.4 on 14-3-3/ChREBP complex (replicate 2). Moreover, the results for the α on 14-3-3/ChREBP complex (setting [5]) and at 14-3-3/ChREBP complex (setting [6]) were 314 and 363, respectively. Also, on 14-3-3/ChREBP complex, the “cooperativity (α) factor” value was determined as 339 ± 35.

Regarding “Ac-RDKIRLNNAIWRAWYIQYVKRRKSPV-NH2 [ChREBP, acetylated ChREBP peptide purchased from GenScript, 14-3-3 client peptide]”, in test [1], the “effect of client peptide on 14-3-3β/macrocycle complex” value is “Stabilization”.

As a reminder, the Kd is the equilibrium constant for the complex coming apart. With `NCCCC[C@@H](C(N)=O)N1CCCc2cn(nn2)-c2ccc(cc2)C[C@H](NC(=O)[C@@H](N)COP(=O)(O)O)C(=O)N[C@@H](CO)CC(=O)NCCC(=O)N[C@@H](Cc2ccc([N+](=O)[O-])cc2)C1=O` [Macrocycle 3], the ΔS on 14-3-3γ [2] is 5.9 ± 0.89 cal/(mol·K). Also, the ΔG on 14-3-3γ [2] was -9.24 ± 0.028 kcal/mol. On 14-3-3γ [2], this compound registered a ΔH of -7.5 ± 0.70 kcal/mol. Also, the α1 at 14-3-3/ChREBP complex (replicate 1) stood at 11.7; on 14-3-3/ChREBP complex (replicate 2), 11. The α at 14-3-3/ChREBP complex (setting [5]) is listed as 12.3; at 14-3-3/ChREBP complex (setting [6]), 11. The compound further yielded a Kd at 14-3-3γ [3] (KD, kinetic fit, SPR, 1:1 model, 25 °C, pH 7.4, average ± SD, n=2, SD) of 230 nM. Besides, the “KD, affinity fit” value on 14-3-3γ [3] (25 °C, pH 7.4, replicate 1) was determined as 228 nM; at 14-3-3γ [3] (25 °C, pH 7.4, replicate 2), 253 nM. The figures for the “ka, kinetic fit” value at 14-3-3γ [3] (setting [7]) and at 14-3-3γ [3] (setting [10]) were 629000 M⁻¹ s⁻¹ and 556000 M⁻¹ s⁻¹, respectively. Besides, the “kd, kinetic fit” value on 14-3-3γ [3] (setting [8]) worked out at 0.13 ± 0.01 s⁻¹; on 14-3-3γ [3] (setting [9]) it was 0.1384 s⁻¹; on 14-3-3γ [3] (setting [10]) it was 0.1296 s⁻¹. Further, the “KD, kinetic fit” value was 220 nM on 14-3-3γ [3] (setting [9]) and 233 nM at 14-3-3γ [3] (setting [10]). The kon on 14-3-3γ [3] (SD) was found to be 590000 M⁻¹ s⁻¹.

On 14-3-3γ [4], `NCCCC[C@@H](C(=O)NCCC(=O)N[C@@H](CCCCNC(=S)Nc1ccc2c(c1)C(=O)OC21c2ccc(O)cc2Oc2cc(O)ccc21)C(N)=O)N1CCCc2cn(nn2)-c2ccc(cc2)C[C@H](NC(=O)[C@@H](N)COP(=O)(O)O)C(=O)N[C@@H](CO)CC(=O)NCCC(=O)N[C@@H](Cc2ccc([N+](=O)[O-])cc2)C1=O` [Macrocycle F3] showed a Kd of 230 ± 60 nM. For the same compound, the “cooperativity (α) factor” value on 14-3-3/ChREBP complex stood at 12 ± 1.

On to `NCCCC[C@@H](C(=O)NCCC(=O)N[C@@H](CCCCNC(=S)Nc1ccc2c(c1)C(=O)OC21c2ccc(O)cc2Oc2cc(O)ccc21)C(N)=O)N1CCCCc2cn(nn2)-c2ccc(cc2)C[C@H](NC(=O)[C@@H](N)COP(=O)(O)O)C(=O)N[C@@H](CO)CC(=O)NCCC(=O)N[C@@H](Cc2ccc([N+](=O)[O-])cc2)C1=O` [Macrocycle F4], for which, on 14-3-3β, the 50% effective concentration (EC50) came to 2000 nM. Further, at 14-3-3/ChREBP complex, the “cooperativity (α) factor” value is on record as 42 ± 1.

On to `NCCCC[C@@H](C(N)=O)N1CCCCc2cn(nn2)-c2ccc(cc2)C[C@H](NC(=O)[C@@H](N)COP(=O)(O)O)C(=O)N[C@@H](CO)CC(=O)NCCC(=O)N[C@@H](Cc2ccc([N+](=O)[O-])cc2)C1=O` [Macrocycle 4], for which the ΔS at 14-3-3γ [2] was 2.9 ± 0.78 cal/(mol·K). Further, the ΔG at 14-3-3γ [2] is listed as -8.15 ± 0.10 kcal/mol. In addition, the ΔH on 14-3-3γ [2] is -7.4 ± 0.44 kcal/mol. Also, the α1 on 14-3-3/ChREBP complex (replicate 1) is on record as 11.8; on 14-3-3/ChREBP complex (replicate 2), 13.5. The α on 14-3-3/ChREBP complex (setting [5]) stood at 42.5; at 14-3-3/ChREBP complex (setting [6]) it was 41.3. For the same compound, the Kd on 14-3-3/ChREBP complex (setting [5]) and at 14-3-3/ChREBP complex (setting [6]) was 5000 nM in each case. The “KD, affinity fit” value on 14-3-3γ [3] (25 °C, pH 7.4, replicate 1) turned out to be 1180 nM; at 14-3-3γ [3] (25 °C, pH 7.4, replicate 2), 1130 nM. The “ka, kinetic fit” value at 14-3-3γ [3] (setting [7]) worked out at 282000 M⁻¹ s⁻¹; at 14-3-3γ [3] (setting [10]) it was 290000 M⁻¹ s⁻¹. The “kd, kinetic fit” value on 14-3-3γ [3] (setting [8]) was 0.31 ± 0.01 s⁻¹; on 14-3-3γ [3] (setting [9]), 0.3198 s⁻¹; at 14-3-3γ [3] (setting [10]), 0.2988 s⁻¹. Further, the “KD, kinetic fit” value at 14-3-3γ [3] (setting [9]) came out at 1140 nM; on 14-3-3γ [3] (setting [10]), 1030 nM. The “association rate (k on) fold increase compared to pepD” value on 14-3-3γ [3] (SPR, 14-3-3γ) was found to be 3.5 fold. Also, the kon at 14-3-3γ [3] (SD) stood at 290000 M⁻¹ s⁻¹.
